In patent US20210246208A1, “COMBINED INHIBITION OF PD-1/PD-L1, TGFB AND DNA-PK FOR THE TREATMENT OF CANCER” (MERCK PATENT GMBH, priority 2018, published 2021):

How the values were obtained:
[1] = 10 mg/kg dose; cited from earlier work
MC38 tumors = test: M3814 and avelumab in murine colon tumor model MC38 (Example 1); format: in vivo, C57BL6/N mice; details: M3814 150 mg/kg orally once daily, avelumab 400 μg/mouse i.v. days 3, 6, 9; for median time the tumors needed to double in size compared to initial volume at day 0: MC38 in C57BL6/N mice, Kaplan-Meyer evaluation; for T/C value: calculated at day 13
Text: M3814 was applied daily started from day 0; Avelumab was applied on days 3, 6 and 9.
This model allows the use of immunocompetent mice, a necessary requirement to study the T-cell mediated antitumor effect of Avelumab. The experimental set up included the induction of MC38 tumors in C57BL6/N mice by injection of 1×10^6 tumor cells into the right flank of the animals. Tumor growth was followed over time by measuring length and width using a caliper. When tumors were established to an average size of 50-100 mm^3, mice were subdivided in 4 treatment groups with 10 animals each, and treatment started. This day was defined as day 0. Group 1 received vehicle treatment. Group 2 received M3814 orally once daily at 150 mg/kg in a volume of 10 ml/kg. Group 3 received avelumab intravenously once daily at 400 μg/mouse in a volume of 5 ml/kg on days 3, 6 and 9. Group 4 received M3814 orally once daily at 150 mg/kg in a volume of 10 ml/kg and avelumab intravenously once daily at 400 μg/mouse in a volume of 5 ml/kg on days 3, 6 and 9.

4T1 mammary tumors = test: 4T1 mammary tumor model, tumor volume and survival (Example 3A); details: concurrent dosing; day 10; Trap 492 μg day 0, 2, 4; radiation 8 Gy day 0-3; M3814 150 mg/kg p.o. q.d. day 0-14
Method: BALB/c mice were inoculated intramuscularly (i.m.) with 0.5×10^5 4T1 cells (day −6) and treated (n=10 mice/group) with (A-C) isotype control (400 μg i.v.; day 0, 2, 4)+vehicle control (0.2 mL, orally [per os; p.o.], once daily [quaque die; q.d.], day 0-14), M7824 (492 μg i.v.; day 0, 2, 4), radiation (8 Gy, day 0-3), M3814 (150 mg/kg, p.o, q.d., day 0-14), M7824+RT, M7824+M3814, RT+M3814, or M7824+RT+M3814; or (D-F) isotype control (400 μg i.v.; day 4, 6, 8)+vehicle control (0.2 mL, (p.o.), (q.d.), day 0-14), M7824 (492 μg i.v.; day 4, 6, 8), radiation (8 Gy, day 0-3), M3814 (150 mg/kg, p.o, q.d., day 0-14), M7824+RT, M7824+M3814, RT+M3814, or M7824+RT+M3814. A-B, D-E, Tumor volumes were measured twice weekly and presented as (A, D) mean±SEM or (B, E) individual tumor volumes. P-values were calculated by two-way RM ANOVA with Tukey's post-test. C, F, For survival analysis, mice were sacrificed when tumor volumes reached ≈2000 mm^3 and median survival times were calculated.
For efficacy and survival studies, 4T1 cells, 0.5×10^5, were inoculated intramuscularly (i.m.) in the thigh of BALB/c mice on day −6. […]
Tumor sizes for the 4T1 and MC38 models were measured twice per week with digital calipers and recorded automatically using WinWedge software. Tumor volumes were calculated with the following formula: tumor volume (mm^3)=tumor length×width×height×0.5236. […]

[2] = system: EMT, fibrosis and VEGF pathway gene signatures in 4T1 tumor tissue; test: RNAseq gene signatures of 4T1 tumor tissue (Example 3G); format: in vivo, BALB/c mice; details: tumors harvested day 6
Method: Tumor tissues were harvested at Day 6 for RNAseq analysis. Gene expression signatures associated with (A) EMT, (B) fibrosis, and (C) VEGF pathway signatures are presented as box plots. Signature scores are defined as the mean log2 (fold change) among all genes in the signature.
RNAseq was performed with Qiagen targeted RNAseq panels consisting of 1278 total genes. EMT and fibrosis gene signatures were based on Qiagen gene lists and the VEGF pathway signature was based on the Biocarta VEGF pathway in Broad's Canonical Pathways. For these gene sets, signature scores are defined as the mean log2 (fold-change) among all genes in each gene signature. These were calculated by adding a pseudocount of 0.5 TPM to all genes and samples, determining the log2 (TPM), then subtracting the median log 2-TPM for each gene across all samples from the log2-TPM for each gene. Signature scores for gene sets are shown as boxplots.

DNA-PK = DNA-PK (Homo sapiens, UniProt P78527); test: Crystallographic and enzyme kinetics studies on DNA-PK; format: biochemical
Text: DNA-PK, together with five additional protein factors (Ku70, Ku80, XRCC4, Ligase IV and Artemis) plays a critical role in the repair of DSB via NHEJ. Kinase activity of DNA-PK is essential for proper and timely DNA repair and the long-term survival of cancer cells.

Row | Compound | pharmacokinetics profile [1] | receptor occupancy [1] | tolerability [1] | median time the tumors needed to double in size compared to initial volume at day 0 (MC38 tumors) [days] | T/C value (MC38 tumors) [%] | tumor volume (4T1 mammary tumors) | EMT signature score [2] | fibrosis signature score [2] | inhibition of DNA-PK (DNA-PK)
1 | avelumab: fully human monoclonal antibody of the immunoglobulin (Ig) G1 isotype that selectively binds to PD-L1 | predictable pharmacokinetics profile | excellent receptor occupancy | well tolerated | 13 | 60 | – | – | – | –
2 | COc1ccc([C@@H](O)c2cc(-c3ncnc4cc(N5CCOCC5)ccc34)c(F)cc2Cl)nn1 [Compound M3814, (S)-[2-chloro-4-fluoro-5-(7-morpholin-4-yl-quinazolin-4-yl)-phenyl]-(6-methoxypyridazin-3-yl)-methanol] | – | – | – | 10 | 47 | did not significantly affect tumor growth | no effect on the EMT signature | significantly decreased the score | potent and selective ATP-competitive inhibitor of DNA-PK
